Series [1] can be described thus: Solubility of Asenapine maleate in saturated solution (Funke et al., literature). The series is classed as physicochemical. The settings on record: water (saturated solution), thermodynamic from solid, converted from the maleate salt value at 23° C., pH=4.4, read-out: free base solubility. The text has this:
Certain crystalline addition salts of Asenapine, for instance a fumarate (EP 0569096), salts with sulfonic acids (WO 98/54186), and a pamoate or hemipamoate salt (EP 0569096), are described in the literature. The pamoate salt is disclosed to be amorphous and the hemipamoate salt is a mixture of amorphous and crystalline phase, wherein the palmitate is described as oil. The marketed form is the maleate salt, which is disclosed to exist in polymorphic forms (WO 2006/106135). The known Asenapine salts have a low solubility in water.

The conditions of series [2]: 23° C., pH=4.4; cited from earlier work.
Series [3] can be described thus: Aqueous solubility by suspension equilibration in water, concentration in filtrate by HPLC. The series is classed as physicochemical. As for the experimental part: The aqueous solubility was determined after 40 hours of suspension equilibration at 25° C. Thereafter, the suspension was filtered and the concentration in the liquid phase was determined by HPLC. The excellent solubility of the Asenapine hydrochloride dihydrate of the invention may render the salt to an excellent alternative to known salts of Asenapine, especially for a fast dissolving formulation.
An HPLC instrument from TSP (UV3000, AS3000, P4000, SCM1000 using software version 4.1) was used in combination with a column from Waters (XTerra MS 018, 4.6×100 mm, 5 μm (CC01A)). The mobile phase A was H2O/ACN 95:5 with 0.1% TFA, and mobile phase B was H2O/ACN 5:95 with 0.1% TFA. The reference concentration was 0.09 mg/mL. The Asenapine peak appeared at a retention time.
4.0-4.1 min. The method was isocratic with 70% mobile phase A and 30% mobile phase B at 0 min and after 10 min at a flow of 1.0 mL/min. The injection volume was 10 μL and the detection wavelength 202 nm.
The aqueous solubility of Asenapine salts is determined in water after 48 hours of suspension equilibration at 25° C. 200 mg of Asenapine hydrochloride is suspended in 1.5 ml of bidistilled water and the resulting suspension is placed on a laboratory shaker at 500 rpm. Thereafter, the suspension is filtered and the concentration in the liquid phase was determined by HPLC as described above. […]

The nature of series [4]: Water uptake by dynamic vapor absorption. The series is classed as physicochemical. How it is done:
Asenapine HCl dihydrate of the invention can absorb about 1.5% of additional water at 95% relative humidity at 25° C. and most of the water uptake occurs above 80% relative humidity as shown by dynamic vapor absorption.

SMILES strings stand for the structures. Structures can show the parent of a compound that is named as a salt.

As for `CN1C[C@@H]2c3ccccc3Oc3ccc(Cl)cc3[C@H]2C1` (relative stereo) [maleate salt of Asenapine, trans-5-chloro-2-methyl-2,3,3a,12b-tetrahydro-1H-dibenz[2,3:6,7]oxepino[4,5-c]pyrrole], the solubility in series [1] was about 4.1 mg/mL. Further, the “concentration of saturated solution” value in series [2] is 5800 µg/mL.
As to `CN1C[C@H]2c3ccccc3Oc3ccc(Cl)cc3[C@@H]2C1` (relative stereo) [Asenapine HCl dihydrate, trans-5-chloro-2-methyl-2,3,3a,12b-tetrahydro-1H-dibenz[2,3:6,7]oxepino[4,5-c]pyrrole], the solubility at 2 days in series [3] (pH 4, thermodynamic from solid, 25° C., 600 rpm, two days of equilibration, at a pH of 4.0, read-out: aqueous solubility (concentration of Asenapine in the filtered solution by HPLC)) came out at 24.2 mg/mL. In addition, the solubility at 40 h in series [3] (thermodynamic from solid, at 25° C., calculated as free base, after 40 hours of suspension equilibration, HPLC) is 24.2 mg/mL. For the same compound, the additional water absorbed entry in series [4] (95% relative humidity at 25° C., most uptake above 80% relative humidity) is on record as “about 1.5%”. In series [4] (dynamic vapor absorption, 25° C.), the hygroscopicity entry is “not, or only very slightly hygroscopic”.

Values taken from US9303036B2, “Crystalline asenapine hydrochloride salt forms” (Sandoz AG, priority 2011, dated 2016).
